Patent US4801616A, “Diphenylmethanone compounds and anti-inflammatory use thereof” (Eli Lilly and Company, priority 1986, dated 1989)

Assays:
[1] = target: T1, fatty acid cyclooxygenase (Homo sapiens, UniProt P23219); test: Fatty Acid Cyclooxygenase (FCO) Assay, inhibition of PGE2 formation by purified human platelet enzyme; format: biochemical; conditions: for IC50: human platelet microsomal enzyme, pH 8.0, 37° C.; for inhibition at 30 µg/mL: percent inhibition at 30 μg/ml
T1 construct: The solubilized fatty acid cyclooxygenase was applied to a 440 ml electrofocusing column; from tissue; host or cells: human platelets: microsomes solubilized with Triton X-100, purified by electrofocusing and G-200 Sephadex
Method: Fatty Acid Cyclooxygenase (FCO) Assay
Microsomes were prepared from 185 bags of human platelets (each bag containing the platelets from one pint of blood prepared using differential centrifugation procedures). The platelets from approximately 60 bags were prepared at one time. Platelet-rich plasma (500 g) was centrifuged at 10,000×g for 20 minutes, and the platelet pellet was suspended in 100 ml of 0.1M potassium phosphate buffer, pH 8.0, with a Teflon glass homogenizer and sonicated for 5.0 minutes with a Bronson Sonifier (Model 350) in a rosette flask cooled in ice water. Disrupted platelets were centrifuged 15 minutes at 10,000× g. The supernatant was centrifuged at 100,000× g for 90 minutes and the microsomal pellets were homogenized in 25 ml of 20% sucrose containing 1.0% Triton X-100 detergent. After 30 minutes at 4° C., the solubilized microsomes were centrifuged at 100,000× g for 60 minutes. The yellow supernatant was removed and stored at -70 ° C.
The solubilized fatty acid cyclooxygenase was applied to a 440 ml electrofocusing column (LKB-8012) containing 1% phisolytes (Brinkman Instruments, Westburgh, NY), pH 2-11, with the cathode at the top of the column. The enzyme was layered onto the column at the appropriate time so that its sucrose concentration was equal to that of the column gradient. This was accomplished by checking the gradient concentration periodically with a sucrose hand refractometer. Electrofocusing was carried out for 16 hours with an initial voltage of 400 V and a final voltage of 900-1,000 volts. Fractions were collected (20 ml) and assayed for PGE2 formation. Active peak fractions were pooled and concentrated by ultrafiltration (XM 100A) to a volume of 3-5 ml.
Active fractions from electrofocusing were applied to a G-200 Sephadex column (2 cm×46 cm) and eluted with 10 mM potassium phosphate buffer, pH 7.0, in 5 ml fractions. After assay, active fractions were poored and concentrated to 1.0 ml by ultrafiltration (XM 100A), and kept frozen at -70° C.
Enzyme activity was determined by assaying for PGE2 formation by preincubating the enzyme with 10 mmol/l imidazole phosphate buffer, pH 8.0, 2 mmol/l epinephrine, 2 mmol/l methemoglobin, and the test compound (30 μg/ml) in a total volume of 0.2 ml for one minute at 37° C. After preincubation, 5 mmol/l ^14 C-arachidonic acid were added and the mixture was incubated an additional 0.5 minutes at 37° C. The enzyme reaction was stopped by the addition of 2 μl of indomethacin (2 mg/ml) in alcohol.
The reaction mixture was spotted (50 μl) on a silica gel (LQ6D) plate and subjected to TLC. The solvent system consisted of chloroform-methanol-glacial acetic acid (90:5:5, v/v/v) and the relative mobilities were PGF2α =0.235, and PGE2 =0.47. The silica gel on the plate was scraped in 1 cm sections, suspended in 5 ml of the scintillation fluid [5.88 g of 2,5-diphenyloxazole and 118 mg of 1,4 -bis(5-phenyloxazol-2-yl)benzene] dissolved in 650 ml of toluene and 350 ml of Triton X-100) and the radioactivity was determined in an Isocap/300 liquid scintillation counter (Searle Analytic, Inc., Southfield, Mich.). Another 50 μl of the mixture was added to 10 ml of the Triton X-100 based scintillation fluid, and the radioactivity was determined so that the amount of radioactivity recovery from the TLC plate could be ascertained. PGE2 formation for each test compound was determined as a percent of control experiments wherein no test compound was added. Data is expressed in Table I either as the percent inhibition of formation of PGE2 at a test compound concentration of 30 μ g/ml, or as an IC50 for inhibition of PGE2 formation.

[2] = system: Collagen-Induced Arthritis; test: Collagen-Induced Arthritis Assay, hindpaw volume; format: in vivo, rat (inbred Lewis male); conditions: Rattus norvegicus, po, oral gavage, 5 days per week, 28 or 30 days, rats
Method: Collagen-Induced Arthritis Assay
Type II collagen was isolated from bovine articular cartilage by the method of Strawich and Nimni Biochemistry, 10, 3905 (1971)]. The collagen was dissolved in 0.1 M acetic acid and stored at -20° C. Type II collagen solution was diluted to 2 mg/ml concentration and emulsified thoroughly with an equal volume of incomplete Freund's adjuvant (ICFA). The emulsion containing approximately 0.5 mg of collagen was injected intradermally on day 0 to groups of 6 inbred Lewis male rats (Charles River Breeders; 170-200 g) at various sites in the dorsal area. The hindpaw volumes of each rat were measured and recorded three times a week throughout the test period to assess the inflammatory reaction. The test group animals received compounds under test as suspensions in carboxymethylcellulose vehicle, by oral gavage, 5 days per week (Monday-Friday), beginning on day 1. Control animals received vehicle without a test compound. At the end of the test (day 28 or 30), the blood of these animals was drawn by cardiac puncture and the serum anti-type II collagen antibody levels were estimated by passive hemagglutination technique, using glutaraldehyde treated sheep red cells, to which type II collagen is conjugated [Avramaes et al., Immunochemistry, 6, 67 (1969); Andriopoulos et al., Arth. Rheum. 19, 613 (1976)]. The cellular response or delayed-type hypersensitivity response to type II collagen was measured by the radiometric ear index assay [Kostiala, Immunology, 33, 561 (1977)]. In certain experiments, the bone damage occurring because of immunization with type II collagen and the effects of drugs were determined from the radiographs of the hindpaws of two or three representative animals from each group. Injections of ICFA without collagen II were employed in some rats as a negative control; these rate received only carbomethoxycellulose vehicle during the test.
The % inhibition was calculated according to the following formula: [formula] where Vt is the hindpaw volume of a compound-treated animal (test group), Vc is the hindpaw volume of a non-compound-treated animal (carbomethoxycellulose vehicle only--the control group), and Vv is the hindpaw volume of a vehicle (carbomethoxycellulose) treated animal which received ICFA with no collagen II (negative control group).

T1 sequence (P23219 24-599): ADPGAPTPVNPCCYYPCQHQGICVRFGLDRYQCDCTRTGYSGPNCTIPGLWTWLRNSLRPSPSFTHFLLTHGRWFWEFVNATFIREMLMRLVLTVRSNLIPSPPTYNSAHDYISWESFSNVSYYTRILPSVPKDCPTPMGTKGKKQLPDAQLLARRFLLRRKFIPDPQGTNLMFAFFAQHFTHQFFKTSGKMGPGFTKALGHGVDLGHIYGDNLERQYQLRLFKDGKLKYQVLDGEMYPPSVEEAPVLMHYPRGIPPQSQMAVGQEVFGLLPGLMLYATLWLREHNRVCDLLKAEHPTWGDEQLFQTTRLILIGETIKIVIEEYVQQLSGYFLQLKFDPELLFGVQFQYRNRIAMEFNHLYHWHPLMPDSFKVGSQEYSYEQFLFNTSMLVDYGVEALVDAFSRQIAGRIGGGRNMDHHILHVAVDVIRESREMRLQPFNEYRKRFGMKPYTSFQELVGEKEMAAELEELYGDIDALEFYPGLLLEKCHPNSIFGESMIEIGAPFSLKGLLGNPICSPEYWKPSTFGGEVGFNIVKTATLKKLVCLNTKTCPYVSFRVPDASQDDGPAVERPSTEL

CCCc1c(O)ccc(C(=O)c2ccccc2O)c1O [Example 4, (2,4-Dihydroxy-3-propylphenyl)(2hydroxyphenyl)methanone]
IC50 [1]: 1.1 µM | inhibition in vivo at 50 mg/kg [2]: 47%

COc1ccccc1C(=O)c1ccc(OC)c(C)c1O [Example 9, (2-hydroxy-4-methoxy-3-methylphenyl)(2-methoxyphenyl)methanone]
inhibition at 30 µg/mL [1]: 35% | inhibition in vivo at 50 mg/kg [2]: 0%

CCCc1c(OCCCCC#N)ccc(C(=O)c2ccccc2O)c1O [Example 11, 5-[3-Hydroxy-4-(2-hydroxybenzoyl)-2-propylphenoxy]pentanenitrile]
IC50 [1]: 84.9 µM | inhibition in vivo at 10 mg/kg [2]: 0% | inhibition in vivo at 25 mg/kg [2]: 31%

CCCc1c(OCCCCc2nnn[nH]2)ccc(C(=O)c2ccccc2OC)c1O [Example 23, (2-Hydroxy-3-propyl-4-[4-(1H-tetrazol-5-yl)butoxy]phenyl)(2-methoxyphenyl)methanone]
inhibition at 30 µg/mL [1]: 17% | inhibition in vivo at 3 mg/kg [2]: 33% | inhibition in vivo at 10 mg/kg [2]: 67% | inhibition in vivo at 25 mg/kg [2]: 69%

CCCc1c(OCCCCCCc2nnn[nH]2)ccc(C(=O)c2ccccc2O)c1O [Example 25, (2-Hydroxyphenyl)[2-hydroxy-3-propyl-4-([6-(1H-tetrazol-5-yl)hexyl]oxy)phenyl]methanone]
IC50 [1]: 12.7 µM | inhibition in vivo at 25 mg/kg [2]: 39%

CCCc1c(OCCCCc2nnn[nH]2)ccc(C(=O)c2ccccc2O)c1O [Example 26, (2-Hydroxyphenyl)(2-hydroxy-3-propyl-4[4-(1H-tetrazol-5-yl)butoxy]phenyl)methanone]
inhibition at 30 µg/mL [1]: 44% | inhibition in vivo at 3 mg/kg [2]: 65% | inhibition in vivo at 25 mg/kg [2]: 71% | inhibition in vivo at 30 mg/kg [2]: 62%

CCCc1c(OCCCCCCCCc2nnn[nH]2)ccc(C(=O)c2ccccc2O)c1O [Example 28, (2-Hydroxyphenyl)[2-hydroxy-3-propyl-4-([8-(1H-tetrazol-5-yl)octyl]oxy)phenyl]methanone]
IC50 [1]: 12.2 µM | inhibition in vivo at 3 mg/kg [2]: 65% | inhibition in vivo at 10 mg/kg [2]: 48% | inhibition in vivo at 30 mg/kg [2]: 95%

CCCc1c(OCCCCC(=O)O)ccc(C(=O)c2ccccc2O)c1O [Example 30, 5-[3-Hydroxy-4-(2-hydroxybenzoyl)-2-propylphenoxy]pentanoic acid]
IC50 [1]: 121 µM | inhibition in vivo at 50 mg/kg [2]: 24%
